Experimental data reported in ChEMBL document CHEMBL4814073, “Ring-opening of five-membered heterocycles conjugated 4-isopropylresorcinol scaffold-based benzamides as HSP90 inhibitors suppressing tumor growth in vitro and in vivo” (Eur J Med Chem, 2021).
pIC50: −log10 of the molar value. Blank lines part the entries; values can stand above or below the molecule they belong to.

Columns and labels:
[1] = Apparent permeability across basolateral to apical in human Caco2 cells by LC-MS/MS analysis; assay type: ADME, cell-based; settings: Caco-2
A549 = experiment: Antiproliferative activity against human A549 cells assessed as growth inhibition incubated for 48 hrs by Sulforhodamine B assay; assay type: functional
HCT-116 = experiment: Antiproliferative activity against human HCT116 cells assessed as growth inhibition incubated for 48 hrs by Sulforhodamine B assay; assay type: functional
Hep 3B2 = experiment: Antiproliferative activity against human Hep3B cells assessed as growth inhibition incubated for 48 hrs by Sulforhodamine B assay; assay type: functional
MDA-MB-231 = experiment: Antiproliferative activity against human MDA-MB-231 cells assessed as growth inhibition incubated for 48 hrs by Sulforhodamine B assay; assay type: functional
[2] = Antiproliferative activity against human HUVEC cells assessed as growth inhibition incubated for 48 hrs by Sulforhodamine B assay; assay type: cell-based
Heat shock protein HSP90 = Heat shock protein HSP90 (Homo sapiens, UniProt P07900+P08238); experiment: Inhibition of HSP90 (unknown origin) assessed as competition of fluorescently labelled geldanamycin binding after 2 hrs by microplate reader analysis; assay type: protein assay
in vitro = settings: human, HUVEC cells versus A549 cells
Description: Therapeutic index, ratio of IC50 for HUVEC cells to IC50 for human A549 cells

661W = experiment: Cytotoxicity against mouse 661W cells by MTT based vision related toxicity assay; assay type: cell-based

permeability [1]: 8.04 10^-6 cm/s
SMILES: COC(=O)c1ccccc1-c1c2ccc(=N)cc-2oc2cc(N)ccc12.Cl [RHODAMINE123]

SMILES: CC(C)c1cc(C(=O)N(C)c2ccc3[nH]ccc3c2)c(O)cc1O
GI50 (A549): 170 nM
GI50 (HCT-116): 1000 nM
GI50 (Hep 3B2): 180 nM
GI50 (MDA-MB-231): 70 nM
GI50 at 48 h [2]: 570 nM
pIC50 (Heat shock protein HSP90): 6.94
selectivity ratio (in vitro): 3.4

SMILES: CC(C)c1cc(C(=O)Nc2cccnc2)c(O)cc1O
GI50 (A549): > 10000 nM

SMILES: CC(C)c1cc(C(=O)N(c2ccncc2)C(C)C)c(O)cc1O
GI50 (A549): 190 nM

SMILES: CCCN(C(=O)c1cc(C(C)C)c(O)cc1O)c1ccc2c(ccn2C)c1
GI50 (A549): 300 nM

SMILES: C=CCNC1=C2C[C@@H](C)C[C@H](OC)[C@H](O)[C@@H](C)/C=C(\C)[C@H](OC(N)=O)[C@@H](OC)/C=C\C=C(/C)C(=O)NC(=CC1=O)C2=O [TANESPIMYCIN]
GI50 (A549): 80 nM
GI50 (HCT-116): 340 nM
GI50 (Hep 3B2): 80 nM
GI50 (MDA-MB-231): 270 nM
GI50 at 48 h [2]: < 100 nM
Activity (661W): > 10 µM

SMILES: CCN(C(=O)c1cc(C(C)C)c(O)cc1O)c1ccc2c(ccn2C)c1
GI50 (A549): 80 nM

SMILES: CC(C)c1cc(-c2n[nH]c(=O)n2-c2ccc3c(ccn3C)c2)c(O)cc1O [GANETESPIB]
Activity (661W): > 10 µM

SMILES: CC(C)c1cc(C(=O)Nc2ccncc2)c(O)cc1O
GI50 (A549): > 10000 nM

SMILES: CCN(C(=O)c1cc(C(C)C)c(O)cc1O)c1ccc2[nH]ccc2c1
GI50 (A549): 110 nM
GI50 (HCT-116): 370 nM
GI50 (Hep 3B2): 110 nM
GI50 (MDA-MB-231): 80 nM
GI50 at 48 h [2]: < 100 nM
pIC50 (Heat shock protein HSP90): 6.93
selectivity ratio (in vitro): 0.9

SMILES: CCCN(C(=O)c1cc(C(C)C)c(O)cc1O)c1ccncc1
GI50 (A549): 370 nM

SMILES: CC(C)c1cc(C(=O)Nc2ccc3c(ccn3C)c2)c(O)cc1O
GI50 (A549): > 10000 nM

SMILES: CCCN(C(=O)c1cc(C(C)C)c(O)cc1O)c1cccnc1
GI50 (A549): 390 nM

SMILES: COC1=C2C[C@@H](C)C[C@H](OC)[C@H](O)[C@@H](C)/C=C(\C)[C@H](OC(N)=O)[C@@H](OC)/C=C\C=C(/C)C(=O)NC(=CC1=O)C2=O [GELDANAMYCIN]
Activity (661W): 1.65 µM

SMILES: CCN(C(=O)c1cc(C(C)C)c(O)cc1O)c1ccncc1
GI50 (A549): 120 nM
GI50 (HCT-116): 640 nM
GI50 (Hep 3B2): 100 nM
GI50 (MDA-MB-231): 80 nM
GI50 at 48 h [2]: < 100 nM
pIC50 (Heat shock protein HSP90): 6.96
selectivity ratio (in vitro): 0.8

SMILES: CC(C)c1cc(C(=O)N(c2ccc3[nH]ccc3c2)C(C)C)c(O)cc1O
GI50 (A549): 210 nM

SMILES: CC(C)c1cc(C(=O)Nc2ccc3[nH]ccc3c2)c(O)cc1O
GI50 (A549): > 10000 nM

SMILES: COc1c(C)cnc(Cn2cnc3c(Cl)nc(N)nc32)c1C [BIIB021]
GI50 (Hep 3B2): 240 nM
GI50 (MDA-MB-231): 240 nM
GI50 at 48 h [2]: 1420 nM
Activity (661W): > 10 µM

SMILES: CCCN(C(=O)c1cc(C(C)C)c(O)cc1O)c1ccc2[nH]ccc2c1
GI50 (A549): 140 nM

SMILES: CC(C)c1cc(C(=O)N(c2cccnc2)C(C)C)c(O)cc1O
GI50 (A549): 260 nM

SMILES: CC(C)c1cc(C(=O)N(C)c2ccc3c(ccn3C)c2)c(O)cc1O
GI50 (A549): 280 nM
GI50 (HCT-116): 700 nM
GI50 (Hep 3B2): 570 nM
GI50 (MDA-MB-231): 100 nM
GI50 at 48 h [2]: 820 nM
pIC50 (Heat shock protein HSP90): 6.98
selectivity ratio (in vitro): 2.9

SMILES: CCNC(=O)c1noc(-c2cc(C(C)C)c(O)cc2O)c1-c1ccc(CN2CCOCC2)cc1 [LUMINESPIB]
Activity (661W): 0.04 µM
